Activity calls are given as the source filed them. The rule behind the calls is not given here.
Experiments:
[1] = test system: Mus musculus; test: Anti-inflammatory activity in BALB/c mouse model of carrageenan-induced paw edema assessed as inhibition of paw swelling at 10 mg/kg, po measured up to 6 hrs relative to control; assay type: functional; conditions: Mus musculus, BALB/c
[2] = test system: Mus musculus; test: Anti-inflammatory activity in BALB/c mouse model of carrageenan-induced paw edema assessed as increase in plasma 14,15-EET levels at 10 mg/kg, po measured after 6 hrs relative to control; assay type: functional
[3] = test system: Rattus norvegicus; test: Anti-inflammatory activity in Sprague-Dawley rat model of CFA-induced rheumatoid arthritis assessed as decrease in plasma IL-6 level at 10 mg/kg, po administered daily measured after 19 days relative to control; assay type: functional; parameters: scale not given: the % may be the effect or the level left; conditions: time 19 day
[4] = AUC (0 to 24 hrs) in plasma of C57BL/6J mouse at 20 mg/kg, po measured for 24 hrs; assay type: ADME, organism-based
[5] = test system: Rattus norvegicus; test: Anti-inflammatory activity in Sprague-Dawley rat model of CFA-induced rheumatoid arthritis assessed as decrease in arthritis index at 10 mg/kg, po administered daily measured for 7 to 19 days; assay type: functional, organism-based; conditions: time 7-19 day
[6] = test system: Mus musculus; test: (§1) Anti-inflammatory activity in CD-1 mouse model of cerulein-induced acute pancreatitis assessed as decrease in neutrophil infiltration in pancreas at 10 mg/kg, ip drug administered at 30 mins and 2.5 hrs post-first cerulein injection and measured after 6 hrs post-first cerulein injection by H and E staining based analysis; assay type: functional, organism-based; conditions: time 3.5-5.5 hrs
[7] = biological target: T1, Cytochrome P450 1A2 (Homo sapiens, UniProt P05177); test: Inhibition of CYP1A2 in human liver microsomes preincubated for 10 mins followed by NADPH addition measured after 3.5 mins by LC-MS/MS analysis; assay type: ADME, Microsome
T1 sequence (P05177 whole entry): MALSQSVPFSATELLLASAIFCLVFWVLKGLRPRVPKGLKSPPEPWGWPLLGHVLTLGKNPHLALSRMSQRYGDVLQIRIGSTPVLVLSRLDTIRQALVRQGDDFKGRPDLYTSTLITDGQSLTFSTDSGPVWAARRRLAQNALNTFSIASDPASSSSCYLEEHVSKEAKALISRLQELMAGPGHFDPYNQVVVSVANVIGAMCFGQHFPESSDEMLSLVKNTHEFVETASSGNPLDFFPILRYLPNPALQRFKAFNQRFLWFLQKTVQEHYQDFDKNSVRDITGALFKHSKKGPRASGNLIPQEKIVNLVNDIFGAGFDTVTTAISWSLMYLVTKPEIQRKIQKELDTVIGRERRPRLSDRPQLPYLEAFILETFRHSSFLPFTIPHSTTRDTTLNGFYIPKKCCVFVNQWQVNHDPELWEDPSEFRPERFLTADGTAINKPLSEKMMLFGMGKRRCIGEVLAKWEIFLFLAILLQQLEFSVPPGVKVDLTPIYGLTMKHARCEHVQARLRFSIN

[8] = Half life in Sprague-Dawley rat at 5 mg/kg, iv measured for 24 hrs; assay type: ADME, organism-based; conditions: in vivo
[9] = Ratio of AUC (0 to 24 hrs) in kidney to plasma in C57BL/6J mouse at 20 mg/kg, po measured for 24 hrs; assay type: ADME, organism-based; conditions: kidney and plasma, read-out: Ratio AUC
[10] = Cmax in liver of C57BL/6J mouse at 20 mg/kg, po measured for 24 hrs; assay type: ADME, organism-based
[11] = biological target: Cytochrome P450 2C19 (Homo sapiens, UniProt P33261); test: Inhibition of CYP2C19 in human liver microsomes preincubated for 10 mins followed by NADPH addition measured after 3.5 mins by LC-MS/MS analysis; assay type: ADME, Microsome
Sequence of Cytochrome P450 2C19 (P33261 whole entry): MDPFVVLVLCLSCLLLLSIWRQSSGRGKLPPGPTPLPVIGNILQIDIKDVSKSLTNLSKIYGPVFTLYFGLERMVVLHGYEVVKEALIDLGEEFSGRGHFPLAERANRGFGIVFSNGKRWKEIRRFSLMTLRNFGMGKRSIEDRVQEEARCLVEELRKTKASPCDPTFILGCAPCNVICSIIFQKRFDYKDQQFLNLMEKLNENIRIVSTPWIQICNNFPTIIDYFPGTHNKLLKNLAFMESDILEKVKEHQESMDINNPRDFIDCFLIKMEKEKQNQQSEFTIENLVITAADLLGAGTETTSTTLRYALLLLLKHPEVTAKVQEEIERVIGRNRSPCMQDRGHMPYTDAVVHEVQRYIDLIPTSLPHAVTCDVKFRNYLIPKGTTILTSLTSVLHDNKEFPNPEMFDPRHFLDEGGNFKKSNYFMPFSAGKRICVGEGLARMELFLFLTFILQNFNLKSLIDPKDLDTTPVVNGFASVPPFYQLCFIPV

[12] = biological target: Cytochrome P450 3A4 (Homo sapiens, UniProt P08684); test: Inhibition of CYP3A4 in human liver microsomes preincubated for 10 mins followed by NADPH addition measured after 3.5 mins by LC-MS/MS analysis; assay type: ADME, Microsome
Sequence of Cytochrome P450 3A4 (P08684 whole entry): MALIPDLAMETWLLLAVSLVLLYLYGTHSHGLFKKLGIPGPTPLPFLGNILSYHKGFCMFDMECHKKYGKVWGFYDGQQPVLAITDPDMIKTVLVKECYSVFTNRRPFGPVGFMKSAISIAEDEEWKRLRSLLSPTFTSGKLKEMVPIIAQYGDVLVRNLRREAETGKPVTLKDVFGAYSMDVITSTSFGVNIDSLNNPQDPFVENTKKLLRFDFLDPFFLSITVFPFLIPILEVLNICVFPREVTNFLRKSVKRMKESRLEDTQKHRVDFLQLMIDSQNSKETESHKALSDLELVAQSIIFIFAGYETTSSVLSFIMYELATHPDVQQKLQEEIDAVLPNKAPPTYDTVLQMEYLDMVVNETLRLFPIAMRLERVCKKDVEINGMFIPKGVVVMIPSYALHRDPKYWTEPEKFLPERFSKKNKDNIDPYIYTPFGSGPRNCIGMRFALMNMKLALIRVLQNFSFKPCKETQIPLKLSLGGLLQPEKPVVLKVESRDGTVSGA

[13] = test system: Mus musculus; test: Anti-inflammatory activity in BALB/c mouse model of carrageenan-induced paw edema assessed as increase in plasma 8,9-EET levels at 10 mg/kg, po measured after 6 hrs relative to control; assay type: functional
[14] = test system: Mus musculus; test: as §1, with “pancreatic edema” for “neutrophil infiltration in pancreas”; assay type: functional, organism-based; conditions: time 3.5-5.5 hrs
[15] = AUC (0 to 24 hrs) in Sprague-Dawley rat at 20 mg/kg, po measured for 24 hrs; assay type: ADME, organism-based; conditions: in vivo
[16] = test system: Rattus norvegicus; test: Anti-inflammatory activity in Sprague-Dawley rat model of CFA-induced rheumatoid arthritis assessed as increase in ratio of plasma 14,15-EET to DHET levels at 10 mg/kg, po administered daily measured after 19 days relative to control; assay type: functional; conditions: time 19 day
[17] = biological target: T2, Bifunctional epoxide hydrolase 2 (Mus musculus, UniProt P34914); test: biochemical
T2 sequence (P34914 whole entry): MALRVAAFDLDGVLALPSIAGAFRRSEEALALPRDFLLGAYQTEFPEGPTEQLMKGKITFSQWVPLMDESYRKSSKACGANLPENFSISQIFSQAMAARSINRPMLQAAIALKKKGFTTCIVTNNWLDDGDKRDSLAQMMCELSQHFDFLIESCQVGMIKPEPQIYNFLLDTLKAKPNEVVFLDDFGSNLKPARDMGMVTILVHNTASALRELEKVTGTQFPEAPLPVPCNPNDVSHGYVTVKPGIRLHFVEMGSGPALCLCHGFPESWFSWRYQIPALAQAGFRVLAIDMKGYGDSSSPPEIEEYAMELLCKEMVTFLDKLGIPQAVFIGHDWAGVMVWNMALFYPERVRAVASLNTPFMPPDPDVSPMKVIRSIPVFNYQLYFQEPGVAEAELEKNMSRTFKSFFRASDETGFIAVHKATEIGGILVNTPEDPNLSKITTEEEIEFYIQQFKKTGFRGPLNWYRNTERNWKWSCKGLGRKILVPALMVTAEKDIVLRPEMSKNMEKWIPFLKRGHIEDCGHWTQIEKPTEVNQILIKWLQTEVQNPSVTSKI
Description: Inhibition of C57BL/6J mouse brain sEH using 14,15-EET as substrate preincubated for 15 mins followed by substrate addition by HPLC-MS analysis

[18] = Cmax in Sprague-Dawley rat at 5 mg/kg, iv measured for 24 hrs; assay type: ADME, organism-based; conditions: in vivo
[19] = test system: Rattus norvegicus; test: Anti-inflammatory activity in Sprague-Dawley rat model of CFA-induced rheumatoid arthritis assessed as increase in plasma 8,9-EET level at 10 mg/kg, po administered daily measured after 19 days relative to control; assay type: functional; conditions: time 19 day
[20] = test system: Rattus norvegicus; test: Anti-inflammatory activity in Sprague-Dawley rat model of CFA-induced rheumatoid arthritis assessed as decrease in lymphocytes infiltration in synovial tissue at 10 mg/kg, po administered daily measured after 19 days by H and E staining based analysis; assay type: functional, organism-based; conditions: time 19.0 day
[21] = Cmax in brain of C57BL/6J mouse at 20 mg/kg, po measured for 24 hrs; assay type: ADME, organism-based
[22] = test system: RAW264.7; test: Anti-inflammatory activity in LPS-indeced mouse RAW264.7 cells assessed as reduction in IL-1beta level at 10 uM preincubated for 1 hr followed by LPS addition measured after 24 hrs by ELISA; assay type: functional, cell-based
[23] = Tmax in Sprague-Dawley rat at 20 mg/kg, po measured for 24 hrs; assay type: ADME, organism-based; conditions: in vivo
[24] = AUC (0 to 24 hrs) in Sprague-Dawley rat at 5 mg/kg, iv measured for 24 hrs; assay type: ADME, organism-based; conditions: in vivo
[25] = test system: Rattus norvegicus; test: Anti-inflammatory activity in Sprague-Dawley rat model of CFA-induced rheumatoid arthritis assessed as decrease in joint deformity at 10 mg/kg, po administered daily measured after 7 days; assay type: functional, organism-based; conditions: time 7.0 day

Q: For `COc1cc(CC(=O)N2CCC(NC(=O)NCc3ccc(OC(F)(F)F)cc3)CC2)cc(OC)c1`, which inhibition in vivo at 10 mg/kg [1] is on record?
A: Its inhibition in vivo at 10 mg/kg is 38.8%.

Q: What about the Activity [2] of the same compound?
A: Its Activity is 128%.

Q: And the Activity [3]?
A: The Activity was 60%.

Q: And the AUC(0-t) at 24 h [4]?
A: The AUC(0-t) at 24 h was 532 ng·h/mL.

Q: And the Activity [5]?
A: The Activity was “Active”.

Q: What about the Activity [6] of the same compound?
A: Its Activity is “Active”.

Q: And the IC50 [7]?
A: Its IC50 is greater than 50 µM.

Q: And the half-life [8]?
A: The half-life was 25.2 min.

Q: And the Kp at 24 h [9]?
A: Its Kp at 24 h is 32.4.

Q: And the Cmax [10]?
A: The Cmax was 3230 ng/g.

Q: What about the IC50 [11] of the same compound?
A: Its IC50 is 9.5 µM.

Q: What about the IC50 [12] of the same compound?
A: The IC50 was 22.9 µM.

Q: What about the Activity [13] of the same compound?
A: Its Activity is 28.7%.

Q: What about the Activity [14] of the same compound?
A: The Activity was “Active”.

Q: What about the AUC(0-t) at 24 h [15] of the same compound?
A: Its AUC(0-t) at 24 h is 725 ng·h/mL.

Q: And the Activity [16]?
A: The Activity was 463%.

Q: What about the IC50 [17] of the same compound?
A: The IC50 was 0.00051 µM.

Q: And the Cmax [18]?
A: Its Cmax is 3120 ng/mL.

Q: And the Activity [19]?
A: Its Activity is 105%.

Q: And the Activity [20]?
A: Its Activity is “Active; Small Lymphocytes Infiltration Was Observed”.

Q: What about the Cmax [21] of the same compound?
A: Its Cmax is 27.9 ng/g.

Q: And the Activity [22]?
A: Its Activity is “Active”.

Q: What about the Tmax [23] of the same compound?
A: Its Tmax is 30 min.

Q: And the AUC(0-t) at 24 h [24]?
A: Its AUC(0-t) at 24 h is 2190 ng·h/mL.

Q: And the Activity [25]?
A: Its Activity is “Active”.
